ChEMBL document CHEMBL5550167, “Emerging trends in small molecule inhibitors targeting aldosterone synthase: A new paradigm in cardiovascular disease treatment” (Eur J Med Chem, 2024)

Biological target: T1, Cytochrome P450 11B2, mitochondrial (Homo sapiens, UniProt P19099)
T1 sequence (P19099 whole entry): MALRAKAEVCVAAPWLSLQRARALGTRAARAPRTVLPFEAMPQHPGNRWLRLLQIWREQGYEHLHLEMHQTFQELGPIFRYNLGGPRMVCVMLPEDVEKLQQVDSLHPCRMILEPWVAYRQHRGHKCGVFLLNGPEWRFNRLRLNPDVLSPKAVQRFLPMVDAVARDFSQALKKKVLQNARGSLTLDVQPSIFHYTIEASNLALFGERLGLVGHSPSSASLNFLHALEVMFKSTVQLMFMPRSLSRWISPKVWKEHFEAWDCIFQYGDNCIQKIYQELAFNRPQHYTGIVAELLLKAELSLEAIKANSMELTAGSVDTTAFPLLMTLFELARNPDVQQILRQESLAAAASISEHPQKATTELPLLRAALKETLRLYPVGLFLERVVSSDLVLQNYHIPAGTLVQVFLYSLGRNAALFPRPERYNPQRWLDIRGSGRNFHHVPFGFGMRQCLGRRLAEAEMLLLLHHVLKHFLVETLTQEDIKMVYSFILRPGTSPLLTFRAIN
Assay: Inhibition of human CYP11B2 expressed in human NCI-H295 cells incubated for 48 hrs by radioimmuno assay
Assay type: ADME, cell-based

IC50 | Compound
0.0005 µM | COc1ccc2c(c1)CC(C)C(c1cncc3ccccc13)=C2 (stereo unspecified)

System: not listed separately
Assay: Metabolic stability in human liver microsomes assessed as half life measured upto 60 mins by LC/MS-MS analysis
Assay type: ADME, Microsome

half-life | Compound
2 h | Cc1nnc2n1-c1ccc(-c3cncc([C@](C)(O)C(F)(F)F)c3)cc1CC2

Biological target: T2, CYP11B1 (Homo sapiens, UniProt P15538)
T2 sequence (P15538 whole entry): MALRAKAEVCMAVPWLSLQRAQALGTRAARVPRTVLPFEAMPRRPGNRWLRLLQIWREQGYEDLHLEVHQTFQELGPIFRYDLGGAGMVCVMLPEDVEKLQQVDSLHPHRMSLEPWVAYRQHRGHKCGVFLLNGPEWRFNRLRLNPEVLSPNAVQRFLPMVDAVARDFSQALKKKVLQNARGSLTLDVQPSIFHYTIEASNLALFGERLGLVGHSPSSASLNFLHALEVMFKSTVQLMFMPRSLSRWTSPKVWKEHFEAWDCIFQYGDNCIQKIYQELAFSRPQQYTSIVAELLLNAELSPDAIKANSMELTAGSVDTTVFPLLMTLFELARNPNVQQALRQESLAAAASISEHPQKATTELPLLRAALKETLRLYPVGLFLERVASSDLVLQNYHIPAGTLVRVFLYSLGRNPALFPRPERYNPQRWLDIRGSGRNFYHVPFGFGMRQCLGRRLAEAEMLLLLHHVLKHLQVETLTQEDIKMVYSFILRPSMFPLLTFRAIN
Assay: (§1) Inhibition of CYP11B1 (unknown origin)
Assay type: ADME

IC50 | Compound
1.1 µM | COc1cc2c(cc1-c1cccnc1)CCC(=O)N2C
2.6 µM | Cc1c(F)cncc1C1COc2c(cccc2C(N)=O)O1 (stereo unspecified)

Biological target: T3, Cytochrome P450 11B1, mitochondrial (Homo sapiens, UniProt P15538)
T3 sequence (P15538 whole entry): T2 sequence (P15538 whole entry)
Assay: as §1
Assay type: ADME

IC50 | Compound
0.01 µM | O=C(CC1CCc2c(-c3ccc(C(F)(F)F)cc3F)cncc21)N1CCCCC1 (stereo unspecified)
0.107 µM | Cn1c(-c2cccnc2)c(C#N)c2ccc(Cl)cc21
0.738 µM | CC1(c2ccccc2)CCc2cncc(-c3ccc(C(F)(F)F)cc3F)c21 (stereo unspecified)
0.081 µM | Cc1c(-c2cccnc2)[nH]c2ccccc12

Biological target: T1, Cytochrome P450 11B2, mitochondrial
Assay: Inhibition of human CYP11B2 stably expressed in G-402 cells
Assay type: ADME, cell-based

IC50 | Compound
0.00023 µM | CCn1cc(C(=O)N2CC3(C2)CN(c2cncc(N4C(=O)c5ccc(Cl)cc5C4(C)C)c2)C3)cn1
0.0005 µM | Cn1cc(C(=O)N2CC(Oc3cncc(N4C(=O)c5ccc(Cl)cc5C4(C)C)c3)C2)cn1
0.0062 µM | Cn1nccc1-c1cncc(N2CCc3cc(Cl)ccc3C2=O)c1Cl

Biological target: T1, Cytochrome P450 11B2, mitochondrial
Assay: Inhibition of CYP11B2 (unknown origin)
Assay type: ADME

IC50 | Compound
0.004 µM | CCCC1(c2ccc(C#N)cc2OC)C(=O)N(Cc2ccccc2)Cc2cncn21 (stereo unspecified)
0.006 µM | CC1(C)CN(Cc2ccccc2)c2ccccc2C1N1C=NCC1CO (stereo unspecified)
< 0.01 µM | N#Cc1cccc2c1OCC(c1cncc(C(O)C3CCOCC3)c1)O2 (stereo unspecified)
0.032 µM | CN(C)C(=O)CC1CCCc2c(-c3ccc(C(F)(F)F)cc3F)cncc21 (stereo unspecified)
0.002 µM | O=C(CC1CCc2c(-c3ccc(C(F)(F)F)cc3F)cncc21)N1CCCCC1 (stereo unspecified)
< 0.01 µM | N#Cc1cccc2c1OCC(c1cncc(CN3CCCCS3(=O)=O)c1)O2 (stereo unspecified)
< 0.01 µM | CS(=O)(=O)COc1cncc(C2COc3c(C#N)cccc3O2)c1 (stereo unspecified)
< 0.01 µM | N#Cc1cccc2c1OCC(c1cncc(CN3CCOC3=O)c1)O2 (stereo unspecified)
0.064 µM | Cc1nnc2n1-c1ccc(-c3cncc([C@](C)(O)C(F)(F)F)c3)cc1CC2
0.007 µM | CC1(C)C(=O)Nc2cccc(Cl)c2C1n1cncc1CO (stereo unspecified)
0.033 µM | CC1(c2ccccc2)CCc2cncc(-c3ccc(C(F)(F)F)cc3F)c21 (stereo unspecified)
0.04 µM | N#Cc1ccc(-c2cncc3c2CCCC3)cc1
0.003 µM | CNC(=O)Cn1cc(NC(=O)CN2CCN(c3cncc(-c4ccc(Cl)cc4)c3)CC2)cn1
0.0022 µM | CC(C)NC(=O)CN1CCN(c2cncc(-c3ccc4c(c3)CCO4)n2)C1
0.004 µM | CC(C)CCC1(c2ccccc2Cl)C(=O)N(Cc2ccc(F)cc2)Cc2cncn21 (stereo unspecified)
